Measured values published in the NIST ThermoML archive (doi:10.1021/acs.jced.9b00536).

Experiment: wn = mass fraction of the nth substance listed
Conditions: 100 kPa, Liquid, Vibrating tube method

[Na+].[OH-] [sodium hydroxide] + O
mass density [kg/m3]
Conditions	303.15 K	313.15 K	323.15 K	333.15 K	343.15 K	353.15 K
w1 = 0.2	1213.8	1208	1202.1	1196.1	1190	1184.4
w1 = 0.21	1223.5	1219	1213	1206.8	1200.5	1194
w1 = 0.22	1236.2	1230.3	1224.3	1218.1	1212	1206.4
w1 = 0.23	1246.1	1240.2	1234.1	1227.9	1221.8	1216.2
w1 = 0.24	1256.6	1250.6	1244.4	1238.3	1232.2	1226.7
w1 = 0.25	1268	1262	1256	1249.5	1243	1236.5
w1 = 0.26	1279.4	1273.3	1267.1	1260.8	1254.6	1249
w1 = 0.27	1289.2	1283	1276.7	1270.3	1264.1	1258.3
w1 = 0.28	1299	1293.7	1287.4	1281	1274.7	1269.1
w1 = 0.29	1311	1304.5	1298.5	1292	1285.5	1278.5
w1 = 0.3	1321.7	1315.4	1308.9	1302.4	1295.9	1289.9
w1 = 0.31	1330.9	1324.5	1318	1311.4	1304.9	1298.7
w1 = 0.32	1343.4	1337	1330.4	1323.8	1317.2	1311.1
w1 = 0.33	1353.5	1347	1340.4	1333.7	1327.1	1321
w1 = 0.34	1364.3	1357.8	1351.1	1344.4	1337.8	1331.6
w1 = 0.35	1372.5	1365.9	1359.2	1352.5	1345.9	1339.8
w1 = 0.36	1381.8	1375.5	1369	1362.9	1356.8	1349.8
w1 = 0.37	1393.6	1386.8	1380	1373.2	1366.5	1360.2
w1 = 0.38	1403.3	1396.5	1389.6	1382.8	1376.1	1369.9
w1 = 0.39	1413.5	1406.5	1400	1393	1386	1379.5
w1 = 0.4	1423.3	1416.3	1409.3	1402.4	1395.6	1389.6
w1 = 0.41	1432.9	1425.9	1418.9	1412	1405.1	1398.7
w1 = 0.42	1443.2	1436.2	1429.2	1422.2	1415.4	1409
w1 = 0.43	1452.9	1445.8	1438.8	1431.8	1425	1418.6
w1 = 0.44	1460.9	1453.8	1446.7	1439.7	1432.8	1426.3
w1 = 0.45	1470.7	1463.5	1456.5	1449.5	1442.6	1436.2
w1 = 0.46	1479.6	1472.7	1465.9	1459	1451.5	1445.2
w1 = 0.47	1489.7	1482.5	1475.3	1468.3	1461.4	1454.8
w1 = 0.48	1499.9	1492.6	1485.4	1478.3	1471.4	1465
w1 = 0.49	1509.4	1502.1	1494.9	1487.9	1481	1474.6
w1 = 0.5	1518.4	1511.1	1503.9	1496.9	1490	1483.6
